pIC50: −log10 of the molar value.

This passage reports IC50, Death rate and Symptoms results from patent publication EP0559625B1, “Esters of L-carnitine and acyl L-carnitine endowed with muscle relaxant activityselective on gastrointestinal tract and pharmaceutical compositions containing same” (Sigma-Tau Industrie Farmaceutiche Riunite S.p.A., priority 1992, dated 1993).

The first series has as its target sites associated to calcium channels labeled by ^3H-Nitrendipine. As to the kind of experiment: Binding to Ca++ channel sites labelled by 3H-Nitrendipine in rat brain. The following applies: rat brain cortex membranes; ^3H-Nitrendipine 0.5 nM, 60' at 30°C; inactive at 10^-5 M not tested higher; read-out: IC50 Uptake sites of Ca^++ channels labelled with ^3H-Nitrendipine. How it is done:
(§1) The "binding" of the tested compounds to the sites associated to calcium channels labeled by ^3H-Nitrendipine, ^3H-Verapamil and ^3H-Diltiazem has been assayed in rat brain according to the method of Schoemaker H. et al. Eur. J. Pharmacol. 111, 273 (1985) and of Reynolds I.J. et al. Eur. J. Pharmacol. 95, 319 (1983).
(§2) Brain cortices are removed from decollated male CrI: CD (SD) BR rats weighing 250-300 g.
(§3) The tissues were homogenized in Tris-HCl buffer and centrifuged at 50000 x g for 10 minutes. The pellet was washed twice through a fresh buffer suspension and centrifuged at 50000 x g for 10 minutes.
(§4) After suspension of the precipitate in the incubation buffer the compounds under examination were added to the medium, starting from a concentration 10^-5 M. Incubation conditions were: ^3H-Nitrendipine (0.5 nM) x 60' at 30°C; ^3H-Verapamil (10 µM) x 20' at 37°C; and ^3H-d-cis Diltiazem (4 nM) x 60' at 30°C. Final volume was 1 ml. Incubation was stopped by rapid filtration under vacuum through GF/B (0.1% […]) fiber filters which were washed with cold incubation buffer (3 x 3 ml) using the system of filtration Brandel Cell Harvester. Filters were put in 8 ml of Optifluor (Packard) and the radioactivity bound to the membranes trapped by fibers counted by liquid scintillation spectrometer TRI-CARB 1900 CA (Packard). The counting efficiency was about 50%.
(§5) The percentage inhibition of the specific ^3H-ligand binding to its respective receptors was calculated for each concentration (mean of three incubates).
(§6) The competition curve, the slope of the curve and IC50^± standard deviation values (drug concentration that reduces specific ^3H-ligand binding to its respective receptors by 50% of its maximum value) were calculated by using the "Allfit" program (De Lean A. et al., Am. J. Physiol. 235, E97, 1978) running on an IBM 55-SH.
A word on the pIC50: it is the negative decadic logarithm of the IC50, by convention in mol/L. For `CC(C)COC(=O)C[C@H](C[N+](C)(C)C)OC(=O)C(C)C` [ST 305], the negative logarithm of the IC50 (pIC50) is 4.48.
Consider `CC(C)COC(=O)C[C@H](C[N+](C)(C)C)OC(=O)CC(C)C` [ST 684], for which the pIC50 is < 5.00.
Same read-out and setting: the same measure for `CCCCCCCCCCCOC(=O)C[C@H](C[N+](C)(C)C)OC(=O)C(C)C` [ST 712, Isobutyryl L-carnitine undecyl ester chloride]: 5.28; for `CCCCCCCOC(=O)C[C@H](C[N+](C)(C)C)OC(C)=O` [ST 904, acetyl L-carnitine heptyl ester chloride]: < 5.00.

The subject of another series is mice. The experiment in a line: Assessment of behaviour and mortality in mice (Irwin's method). The format is in vivo. Conditions: dose 300 (mg/kg per os), dead/treated, 4 animals/dose. The method, then: The assessment of normal behaviour in mice was carried out following S. Irwin's method, Psychopharmacologia 13, 222 (1968). This method allows alterations in some behavioural, neurophysiologic and neurovegetative parameters to be detected, which are directly observable by the researcher. The study was conducted using male CrI: (CD-I)(ICR)BR mice (Charles River - Italy) weighing 22-25 g, following oral administration of the compounds suspended in carboxymethylcellulose (0.5% by weight in H2O) to groups of 4 animals/dose.
The animals were continuously kept under observation for five hours following treatment and twice a day in the subsequent five days. Mortality was also observed during the overall test period. The initial dose was 1000 mg/kg per os; lower doses were administered in case of death or if the initial dose brought about an excessive response.
For the molecule `CCCCCCCOC(=O)C[C@H](C[N+](C)(C)C)OC(C)=O` [ST 904, acetyl L-carnitine heptyl ester chloride], the Death rate is given as 0/4.

The series is the same for the next values; noted with them: dose 300 (mg/kg per os), n.e. = no effect, (*) = in connection with death rate only.
In the case of `CCCCCCCOC(=O)C[C@H](C[N+](C)(C)C)OC(C)=O` [ST 904, acetyl L-carnitine heptyl ester chloride], the Symptoms entry was “n.e”.

Staying with this series, now noted: dose 600 (mg/kg per os), dead/treated, 4 animals/dose.
As to `CCCCCCCOC(=O)C[C@H](C[N+](C)(C)C)OC(C)=O` [ST 904, acetyl L-carnitine heptyl ester chloride], the Death rate is given as 2/4.

The same series, now with this note: dose 600 (mg/kg per os), n.e. = no effect, (*) = in connection with death rate only.
For the molecule `CCCCCCCOC(=O)C[C@H](C[N+](C)(C)C)OC(C)=O` [ST 904, acetyl L-carnitine heptyl ester chloride], the Symptoms result is reported as “convulsions (*)”.

The series is the same for the next values; noted with them: dose 1000 (mg/kg per os), dead/treated, 4 animals/dose.
As to `CC(C)COC(=O)C[C@H](C[N+](C)(C)C)OC(=O)C(C)C` [ST 305], the Death rate is on record as 0/4.
Regarding `CC(C)COC(=O)C[C@H](C[N+](C)(C)C)OC(=O)CC(C)C` [ST 684], the Death rate is listed as 0/4.
On the same count and under the same terms, the same measure for `CCCCCCCCCCCOC(=O)C[C@H](C[N+](C)(C)C)OC(=O)C(C)C` [ST 712, Isobutyryl L-carnitine undecyl ester chloride]: 0/4; for `CCCCCCCOC(=O)C[C@H](C[N+](C)(C)C)OC(C)=O` [ST 904, acetyl L-carnitine heptyl ester chloride]: 4/4.

Still in this series, the particulars now being: dose 1000 (mg/kg per os), n.e. = no effect, (*) = in connection with death rate only.
Turning to `CC(C)COC(=O)C[C@H](C[N+](C)(C)C)OC(=O)C(C)C` [ST 305], the Symptoms result is on record as “n.e”.
Same read-out and setting: the same measure for `CC(C)COC(=O)C[C@H](C[N+](C)(C)C)OC(=O)CC(C)C` [ST 684]: “n.e”.
Turning to `CCCCCCCCCCCOC(=O)C[C@H](C[N+](C)(C)C)OC(=O)C(C)C` [ST 712, Isobutyryl L-carnitine undecyl ester chloride], the Symptoms result is “n.e”.
Still for that read-out and setting: to `CCCCCCCOC(=O)C[C@H](C[N+](C)(C)C)OC(C)=O` [ST 904, acetyl L-carnitine heptyl ester chloride] belongs “convulsions (*)”.

For a further series, the target named is sites associated to calcium channels labeled by ^3H-Verapamil. The experiment in a line: Binding to Ca++ channel sites labelled by 3H-Verapamil in rat brain. Conditions: rat brain cortex membranes; ^3H-Verapamil (10 µM), 20' at 37°C; read-out: IC50 Uptake sites of Ca^++ channels labelled with ^3H-Verapamil. The method, then:
as §1, §2, §3, §4, §5, §6
On to `CC(C)COC(=O)C[C@H](C[N+](C)(C)C)OC(=O)C(C)C` [ST 305], for which the pIC50 is 5.46.
The same measure, in the same setting: to `CC(C)COC(=O)C[C@H](C[N+](C)(C)C)OC(=O)CC(C)C` [ST 684] belongs 5.80; to `CCCCCCCCCCCOC(=O)C[C@H](C[N+](C)(C)C)OC(=O)C(C)C` [ST 712, Isobutyryl L-carnitine undecyl ester chloride], 5.55; to `CCCCCCCOC(=O)C[C@H](C[N+](C)(C)C)OC(C)=O` [ST 904, acetyl L-carnitine heptyl ester chloride], 5.49.

For a further series, the target named is sites associated to calcium channels labeled by ^3H-Diltiazem. As to the kind of experiment: Binding to Ca++ channel sites labelled by 3H-Diltiazem in rat brain. The following applies: rat brain cortex membranes; ^3H-d-cis Diltiazem 4 nM, 60' at 30°C; read-out: IC50 Uptake sites of Ca^++ channels labelled with ^3H-Diltiazem. The method, then:
as §1, §2, §3, §4, §5, §6
Take `CC(C)COC(=O)C[C@H](C[N+](C)(C)C)OC(=O)C(C)C` [ST 305]: the pIC50 was < 5.00.
Consider `CC(C)COC(=O)C[C@H](C[N+](C)(C)C)OC(=O)CC(C)C` [ST 684], for which the negative-log IC50 (pIC50) is 5.11.
The same measure, in the same setting: the same measure for `CCCCCCCCCCCOC(=O)C[C@H](C[N+](C)(C)C)OC(=O)C(C)C` [ST 712, Isobutyryl L-carnitine undecyl ester chloride]: 5.92; for `CCCCCCCOC(=O)C[C@H](C[N+](C)(C)C)OC(C)=O` [ST 904, acetyl L-carnitine heptyl ester chloride]: < 5.00.
